Consider 8 compounds from patent US20070203134A1, “Benzimidazole Acetonitriles” (APPLIED RESEARCH SYSTEMS ARS HOLDING N.V., priority 2004, published 2007).

A value given as a limit tells only on which side of the number the result lay.

One may read the IC50 as the midpoint of a concentration-inhibition curve.

Chain of human GSK3 beta (P49841 whole entry): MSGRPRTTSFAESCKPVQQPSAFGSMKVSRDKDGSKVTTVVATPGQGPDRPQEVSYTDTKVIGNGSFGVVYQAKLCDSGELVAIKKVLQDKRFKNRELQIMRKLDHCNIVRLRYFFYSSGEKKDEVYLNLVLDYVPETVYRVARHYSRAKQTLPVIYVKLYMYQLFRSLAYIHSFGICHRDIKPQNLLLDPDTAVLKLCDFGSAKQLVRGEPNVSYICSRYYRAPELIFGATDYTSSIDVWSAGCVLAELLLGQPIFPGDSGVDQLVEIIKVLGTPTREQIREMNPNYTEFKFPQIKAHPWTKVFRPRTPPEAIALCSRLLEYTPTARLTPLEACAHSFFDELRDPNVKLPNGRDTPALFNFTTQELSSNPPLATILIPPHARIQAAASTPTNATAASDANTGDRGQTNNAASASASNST

One assay has as its target human GSK3 beta (Homo sapiens, UniProt P49841). Kind of assay: GSK3β in vitro kinase assay (33P-ATP phosphorylation of phospho GS2 peptide). The class given is biochemical. To be noted: in vitro potency, read-out: IC50 (μM) GSK3beta. On the procedure: GSK3β Assay (see Bioorg. Med. Chem. Lett by Naerum et al. 12 p. 1525-1528 (2002))
In a final reaction volume of 25 μl, GSK3β (h) (5-10 mU) is incubated with 8 mM MOPS pH 7.0, 0.2 mM EDTA, 20 μM […](p)EDEEE (being the GSK3 substrate; a phospho GS2 peptide), 10 mM Mg Acetate and [γ-^33P-ATP] (Specific activity approx. 500 cpm/pmol, concentration as required). The reaction is initiated by the addition of Mg^2+ [γ-^33P-ATP]. After incubation for 40 minutes at room temperature, the reaction is stopped by the addition of 5 μl of a 3% phosphoric acid solution. 10 μl of the reaction is then spotted onto a P30 filtermat and washed three times for 5 minutes in 50 mM phosphoric acid and once in methanol prior to drying and the degree of phosphorylation of the substrate is determined by scintillation counting.
Regarding `CCN1/C(=C(\C#N)c2nc(NC3CCCCCC3)ncc2C)Nc2ccccc21` [Example 12, (2Z)-[2-(cycloheptylamino)-5-methylpyrimidin-4-yl](1-ethyl-1,3-dihydro-2H-benzimidazol-2-ylidene)acetonitrile], the IC50 was less than 10 µM.

In the case of `N#C/C(=C1/Nc2ccccc2N1C1CCC1)c1ccnc(NCCCN2CCCC2=O)n1` [Example 15, (2Z)-(1-cyclobutyl-1,3-dihydro-2H-benzimidazol-2-ylidene)(2-{[3-(2-oxopyrrolidin-1-yl)propyl]amino}pyrimidin-4-yl)acetonitrile], the concentration for half-maximal inhibition (IC50) was less than 10 µM.

`Cc1cnc(NC2CCCC2)nc1C(C#N)=C1Nc2ccccc2N1` [Example 28, [2-(cyclopentylamino)-5-methylpyrimidin-4yl](1,3-dihydro-2H-benzimidazol-2-ylidene)acetonitrile]: the IC50 was less than 10 µM.

Turning to `CCN1/C(=C(\C#N)c2cc(NCCc3cccnc3)ncn2)Nc2ccccc21` [Example 46], the IC50 is less than 10 µM.

Take `CCN1/C(=C(\C#N)c2nc(NC(=O)CCCNC(=O)OC(C)(C)C)ncc2C)Nc2ccccc21` [Example 73, tert-butyl[4-({4-[(Z)-cyano(1-ethyl-1,3-dihydro-2H-benzimidazol-2-ylidene)methyl]-5-methylpyrimidin-2-yl}amino)-4oxobutyl]carbamate]: the IC50 was less than 10 µM.

For the compound `CCN1/C(=C(\C#N)c2nc(NC(=O)Cc3ccccc3OC)ncc2C)Nc2ccccc21` [Example 79, N-{4-[(Z)-cyano(1-ethyl-1,3-dihydro-2H-benzimidazol-2-ylidene)methyl]-5-methylpyrimidin-2-yl}-2-(2-methoxyphenyl)acetamide], the concentration for half-maximal inhibition (IC50) was less than 10 µM.

For the compound `CCN1/C(=C(\C#N)c2nc(NC(=O)C3CN(C(=O)OC(C)(C)C)CCO3)ncc2C)Nc2ccccc21` (stereo not drawn) [Example 84, tert-butyl 2-[({4-[(Z)-cyano(1-ethyl-1,3-dihydro-2H-benzimidazol-2-ylidene)methyl]-5-methylpyrimidin-2-yl}amino)carbonyl]morpholine-4-carboxylate], the half-maximal inhibitory concentration (IC50) was less than 10 µM.

The test system of the next assay is db/db mice. Kind of assay: Experimental model of type II diabetes (oral postprandial glycemia in db/db mice). It is filed as in vivo. To be noted: 50 mg/kg per os, 4 hrs after drug administration, compared to vehicle treated Group 1. On the procedure:
b) In Vivo Assay: Experimental Model of Type II Diabetes (oral Postprandial Glycemia in db/db Mice)
The following assay aims at determining the anti-diabetic effect of the test compounds of formula (I) in a model of postprandial glycemia in db/db mice, in vivo.
The assay was performed as follows:
A total of 24 db/db mice (about 8-9 weeks; obtained from IFFACREDO, l'Arbreste, France) were fasted during 20 hours.
2 groups, each consisting of 6 animals were formed: • Group 1: The animals were administered (per os) a dose of 10 mg/kg of vehicle. • Group 2: The animals were administered per os) a dose of 50 mg/kg of the test compound according to formula (D.
After oral administration of the compounds of formula (I) solubilized or suspended in CarboxyMethylCellulose (0.5%), Tween 20 (0.25%) and water as vehicle, the animals had access to commercial food (D04, UAR, Villemoisson/Orge, France) ad libitum. The diabetic state of the mice was verified by determining the blood glucose level before drug administration. Blood glucose and serum insulin levels were then determined 4 hrs after drug administration.
The determination of the blood glucose level was performed using a glucometer (Precision Q.I.D., Medisense, Abbot, ref. 212.62.31). […]
Changes in blood glucose and serum insulin of drug treated mice were expressed as a percentage of control (group 1: vehicle treated mice).
For the compound `CCN1/C(=C(\C#N)c2nc(NC3CCC3)ncc2C)Nc2ccccc21` [Example 3], the “blood glucose level reduced” value is given as “about 28%”.

The assay is the same for the next values; noted with them: serum insulin, 50 mg/kg per os, 4 hrs after drug administration, compared to vehicle treated Group 1.
For `CCN1/C(=C(\C#N)c2nc(NC3CCC3)ncc2C)Nc2ccccc21` [Example 3], the insulin level reduced entry is on record as “about 58%”.
